The source of these data is patent US9439426B2, “Active compound combinations comprising carboxamide derivatives and a biological control agent” (BAYER CROPSCIENCE AG, priority 2012, dated 2016).

In general, chromatographic logP refers to lipophilicity estimated from chromatographic retention. Low readings indicate lower lipophilicity, high ones higher lipophilicity.

Data set [1] is described as follows: log P by HPLC on reversed-phase column (C 18), EEC Directive 79/831 Annex V.A8. It counts as physicochemical. The following applies: reversed-phase HPLC column (C 18), 40° C., 0.1% aqueous formic acid and acetonitrile. How it is done:
In table 1, the log P values were determined in accordance with EEC Directive 79/831 Annex V.A8 by HPLC (High Performance Liquid Chromatography) on a reversed-phase column (C 18), using the method described below:
Temperature: 40° C.; Mobile phases: 0.1% aqueous formic acid and acetonitrile; linear gradient from 10% acetonitrile to 90% acetonitrile.
Calibration was carried out using unbranched alkan-2-ones (comprising 3 to 16 carbon atoms) with known log P values (determination of the log P values by the retention times using linear interpolation between two successive alkanones). lambda-max-values were determined using UV-spectra from 200 nm to 400 nm and the peak values of the chromatographic signals.

Another data set relates to Puccinia triticina. Kind of data set: Puccinia triticina-test (wheat)/preventive. It is filed as in vivo. The following applies: preventive, 30 ppm a.i., evaluated 8 days after inoculation. On the procedure:
(§1) The commercially available compounds SERENADE-MAX®, SONATA®, active compounds (1 part by weight) solved in N,N-dimethylacetamide (49 parts by weight) and alkylaryl polyglycol ether (1 part by weight), or combinations thereof were diluted with water to the desired concentration.
(§2) To test for preventive activity, young plants are sprayed with the preparation of active compound or active compound combination at the stated rate of application.
After the spray coating has been dried, the plants are sprayed with a spore suspension of Puccinia triticina. The plants remain for 48 hours in an incubation cabinet at approximately 20° C. and a relative atmospheric humidity of approximately 100%.
(§3) The plants are placed in the greenhouse at a temperature of approximately 20° C. and a relative atmospheric humidity of approximately 80%.
(§4) The test is evaluated 8 days after the inoculation. 0% means an efficacy which corresponds to that of the untreated control, while an efficacy of 100% means that no disease is observed.

The test system of the next data set is Pyrenophora teres. Kind of data set: Pyrenophora teres-test (barley)/preventive. It is filed as in vivo. To be noted: preventive, 30 ppm a.i., evaluated 8 days after inoculation. How it is done: as §1, §2
After the spray coating has been dried, the plants are sprayed with a spore suspension of Pyrenophora teres. The plants remain for 48 hours in an incubation cabinet at approximately 20° C. and a relative atmospheric humidity of approximately 100%.
as §3, §4

A further data set deals with Septoria tritici. Kind of data set: Septoria tritici-test (wheat)/preventive. It is filed as in vivo. The following applies: preventive, 30 ppm a.i., evaluated 21 days after inoculation. On the procedure: as §1, §2
After the spray coating has been dried, the plants are sprayed with a spore suspension of Septoria tritici. The plants remain for 48 hours in an incubation cabinet at approximately 20° C. and a relative atmospheric humidity of approximately 100% and afterwards for 60 hours at approximately 15° C. in a translucent incubation cabinet at a relative atmospheric humidity of approximately 100%.
The plants are placed in the greenhouse at a temperature of approximately 15° C. and a relative atmospheric humidity of approximately 80%.
The test is evaluated 21 days after the inoculation. 0% means an efficacy which corresponds to that of the untreated control, while an efficacy of 100% means that no disease is observed.

As to `CC(C)c1ccccc1CN(C(=S)c1c(C(F)F)nn(C)c1F)C1CC1` [A20, N-cyclopropyl-3-(difluoromethyl)-5-fluoro-N-(2-isopropylbenzyl)-1-methyl-1H-pyrazole-4-carbothioamide], the chromatographic logP in data set [1] is 4.36.

Regarding `CC(C)c1ccc(Cl)cc1CN(C(=O)c1c(C(F)F)nn(C)c1F)C1CC1` [A5, N-(5-chloro-2-isopropylbenzyl)-N-cyclopropyl-3-(difluoromethyl)-5-fluoro-1-methyl-1H-pyrazole-4-carboxamide], the figures for the “Efficacy in % found” value in the data set on Puccinia triticina, in the data set with Pyrenophora teres and with Septoria tritici were 67%, 78% and 60%, respectively.
